From ChEMBL document CHEMBL4507286 (2021)

Experiments:
[1] = biological target: 5-hydroxytryptamine receptor 1A (Homo sapiens) (UniProt P08908); settings: Compound concentration 10.0 uM
[2] = biological target: Serine/threonine-protein kinase D3 (Homo sapiens) (UniProt O94806)
[3] = biological target: Bone morphogenetic protein receptor type-2 (Homo sapiens) (UniProt Q13873)
[4] = biological target: Ribosomal protein S6 kinase alpha-3 (Homo sapiens) (UniProt P51812)
[5] = biological target: Ephrin type-A receptor 7 (Homo sapiens) (UniProt Q15375)
[6] = biological target: 5-hydroxytryptamine receptor 2B (Homo sapiens, UniProt P41595); settings: Compound concentration 10.0 uM
[7] = biological target: Ephrin type-B receptor 6 (Homo sapiens) (UniProt O15197)
[8] = biological target: Serine/threonine-protein kinase SBK1 (Homo sapiens) (UniProt Q52WX2)
[9] = biological target: Maternal embryonic leucine zipper kinase (Homo sapiens) (UniProt Q14680)
[10] = biological target: Ribosomal protein S6 kinase alpha-4 (Homo sapiens) (UniProt O75676)
[11] = biological target: Tyrosine-protein kinase Tec (Homo sapiens) (UniProt P42680)
[12] = biological target: Serine/threonine-protein kinase MRCK alpha (Homo sapiens) (UniProt Q5VT25)
[13] = biological target: Dual specificity mitogen-activated protein kinase kinase 5 (Homo sapiens) (UniProt Q13163)
[14] = tested on: Tyrosine-protein kinase ABL1 (Homo sapiens), P00519 [E255K]
[15] = biological target: High affinity nerve growth factor receptor (Homo sapiens) (UniProt P04629)
[16] = biological target: 5-hydroxytryptamine receptor 2C (Homo sapiens) (UniProt P28335); settings: Compound concentration 10.0 uM
[17] = biological target: Ephrin type-A receptor 4 (Homo sapiens) (UniProt P54764)
[18] = biological target: Testis-specific serine/threonine-protein kinase 3 (Homo sapiens) (UniProt Q96PN8)
[19] = biological target: Ankyrin repeat and protein kinase domain-containing protein 1 (Homo sapiens) (UniProt Q8NFD2)
[20] = biological target: Serine/threonine-protein kinase VRK2 (Homo sapiens) (UniProt Q86Y07)
[21] = biological target: Fibroblast growth factor receptor 3 (Homo sapiens) (UniProt P22607)
[22] = biological target: Insulin-like growth factor 1 receptor (Homo sapiens) (UniProt P08069)
[23] = biological target: Mitogen-activated protein kinase 3 (Homo sapiens) (UniProt P27361)
[24] = biological target: Inhibitor of nuclear factor kappa-B kinase subunit alpha (Homo sapiens) (UniProt O15111)
[25] = biological target: Receptor-type tyrosine-protein kinase FLT3 (Homo sapiens) (UniProt P36888)
[26] = biological target: Tyrosine-protein kinase Fgr (Homo sapiens) (UniProt P09769)
[27] = biological target: Mu-type opioid receptor (Homo sapiens) (UniProt P35372); settings: Compound concentration 10.0 uM
[28] = biological target: Ephrin type-B receptor 3 (Homo sapiens) (UniProt P54753)
[29] = biological target: Calcium/calmodulin-dependent protein kinase type 1D (Homo sapiens) (UniProt Q8IU85)
[30] = biological target: NUAK family SNF1-like kinase 2 (Homo sapiens) (UniProt Q9H093)
[31] = biological target: Protein kinase C delta type (Homo sapiens) (UniProt Q05655)
[32] = biological target: Atypical kinase COQ8A, mitochondrial (Homo sapiens) (UniProt Q8NI60)
[33] = biological target: Mitogen-activated protein kinase kinase kinase 4 (Homo sapiens) (UniProt Q9Y6R4)
[34] = biological target: Death-associated protein kinase 2 (Homo sapiens) (UniProt Q9UIK4)
[35] = biological target: TGF-beta receptor type-1 (Homo sapiens) (UniProt P36897)
[36] = tested on: Fibroblast growth factor receptor 3 (Homo sapiens), P22607 [G697C]
[37] = biological target: Phosphatidylinositol 4-phosphate 3-kinase C2 domain-containing subunit beta (Homo sapiens) (UniProt O00750)
[38] = biological target: Tyrosine-protein kinase receptor TYRO3 (Homo sapiens) (UniProt Q06418)
[39] = biological target: Serine/threonine-protein kinase TNNI3K (Homo sapiens) (UniProt Q59H18)
[40] = biological target: Transient receptor potential cation channel subfamily M member 6 (Homo sapiens) (UniProt Q9BX84)
[41] = tested on: Epidermal growth factor receptor (Homo sapiens), P00533 [T790M]
[42] = biological target: Cyclin-dependent kinase-like 2 (Homo sapiens) (UniProt Q92772)
[43] = biological target: MAP kinase-interacting serine/threonine-protein kinase 2 (Homo sapiens) (UniProt Q9HBH9)
[44] = biological target: Eukaryotic translation initiation factor 2-alpha kinase 1 (Homo sapiens) (UniProt Q9BQI3)
[45] = biological target: NUAK family SNF1-like kinase 1 (Homo sapiens) (UniProt O60285)
[46] = Compound concentration 1000.0 nM
[47] = Compound concentration 100.0 nM

Sequence of Tyrosine-protein kinase Fgr (Homo sapiens) (P09769 2-529 limits assumed): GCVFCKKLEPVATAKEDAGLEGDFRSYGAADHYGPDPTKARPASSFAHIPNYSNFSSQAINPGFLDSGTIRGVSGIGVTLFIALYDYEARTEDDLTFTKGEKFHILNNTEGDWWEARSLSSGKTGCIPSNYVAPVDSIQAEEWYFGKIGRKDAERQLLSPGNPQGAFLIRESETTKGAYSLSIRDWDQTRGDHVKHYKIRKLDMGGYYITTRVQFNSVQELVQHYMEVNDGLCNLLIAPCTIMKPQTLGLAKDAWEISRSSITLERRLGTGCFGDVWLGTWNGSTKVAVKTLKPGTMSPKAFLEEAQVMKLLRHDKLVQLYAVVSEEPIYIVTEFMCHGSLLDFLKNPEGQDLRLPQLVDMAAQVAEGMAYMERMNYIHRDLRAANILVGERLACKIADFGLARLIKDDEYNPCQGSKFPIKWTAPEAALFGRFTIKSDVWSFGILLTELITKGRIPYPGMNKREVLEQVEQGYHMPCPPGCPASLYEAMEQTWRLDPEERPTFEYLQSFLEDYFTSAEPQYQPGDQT
Sequence of Serine/threonine-protein kinase VRK2 (Homo sapiens) (Q86Y07 whole entry): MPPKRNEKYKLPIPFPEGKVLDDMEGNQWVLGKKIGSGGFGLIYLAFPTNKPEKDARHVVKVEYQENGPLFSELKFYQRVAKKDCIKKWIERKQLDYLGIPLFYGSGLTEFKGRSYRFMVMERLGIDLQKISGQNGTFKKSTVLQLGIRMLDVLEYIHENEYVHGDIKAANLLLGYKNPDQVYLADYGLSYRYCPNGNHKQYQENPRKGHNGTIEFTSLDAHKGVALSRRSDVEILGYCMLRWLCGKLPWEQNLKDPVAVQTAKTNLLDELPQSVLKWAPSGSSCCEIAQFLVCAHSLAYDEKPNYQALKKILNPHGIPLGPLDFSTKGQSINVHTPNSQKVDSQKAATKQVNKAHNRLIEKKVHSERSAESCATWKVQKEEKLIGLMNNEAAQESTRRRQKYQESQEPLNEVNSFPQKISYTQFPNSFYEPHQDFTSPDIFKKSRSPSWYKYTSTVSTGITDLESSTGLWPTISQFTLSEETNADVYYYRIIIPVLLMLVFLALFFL
Sequence of Ribosomal protein S6 kinase alpha-4 (Homo sapiens) (O75676 whole entry, looked up): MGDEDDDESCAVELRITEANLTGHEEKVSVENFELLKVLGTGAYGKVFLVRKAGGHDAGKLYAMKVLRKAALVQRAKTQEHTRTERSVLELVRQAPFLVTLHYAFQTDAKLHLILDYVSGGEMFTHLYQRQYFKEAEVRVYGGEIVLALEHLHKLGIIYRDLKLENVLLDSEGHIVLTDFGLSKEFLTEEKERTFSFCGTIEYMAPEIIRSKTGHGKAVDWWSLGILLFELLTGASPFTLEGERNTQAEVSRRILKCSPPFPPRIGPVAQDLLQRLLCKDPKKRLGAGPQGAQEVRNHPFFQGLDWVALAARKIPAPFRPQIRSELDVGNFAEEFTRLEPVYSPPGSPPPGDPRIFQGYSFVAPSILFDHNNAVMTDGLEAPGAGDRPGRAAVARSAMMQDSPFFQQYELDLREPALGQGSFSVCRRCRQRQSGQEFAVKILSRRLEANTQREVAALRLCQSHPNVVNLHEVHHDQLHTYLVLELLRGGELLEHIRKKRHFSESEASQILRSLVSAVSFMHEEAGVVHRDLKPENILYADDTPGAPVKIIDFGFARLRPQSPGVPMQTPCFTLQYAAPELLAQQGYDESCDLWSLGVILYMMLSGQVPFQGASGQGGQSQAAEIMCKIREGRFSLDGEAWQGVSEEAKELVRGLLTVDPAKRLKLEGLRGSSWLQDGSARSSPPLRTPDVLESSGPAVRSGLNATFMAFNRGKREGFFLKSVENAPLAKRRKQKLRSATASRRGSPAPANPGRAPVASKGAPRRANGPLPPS
Sequence of 5-hydroxytryptamine receptor 2B (P41595 whole entry): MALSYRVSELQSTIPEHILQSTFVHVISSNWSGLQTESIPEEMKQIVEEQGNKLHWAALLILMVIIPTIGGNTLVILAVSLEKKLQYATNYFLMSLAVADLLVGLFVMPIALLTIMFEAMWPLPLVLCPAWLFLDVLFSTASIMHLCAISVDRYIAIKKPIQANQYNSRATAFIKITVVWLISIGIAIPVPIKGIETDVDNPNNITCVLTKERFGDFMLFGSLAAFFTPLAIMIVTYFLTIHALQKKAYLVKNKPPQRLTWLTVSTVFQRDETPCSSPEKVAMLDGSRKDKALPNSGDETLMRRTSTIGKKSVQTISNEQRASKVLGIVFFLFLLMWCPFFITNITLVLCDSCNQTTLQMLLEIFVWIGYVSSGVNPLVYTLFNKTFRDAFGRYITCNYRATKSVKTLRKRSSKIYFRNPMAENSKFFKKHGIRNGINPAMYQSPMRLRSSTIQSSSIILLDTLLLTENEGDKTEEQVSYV
Sequence of Death-associated protein kinase 2 (Homo sapiens) (Q9UIK4 whole entry, looked up): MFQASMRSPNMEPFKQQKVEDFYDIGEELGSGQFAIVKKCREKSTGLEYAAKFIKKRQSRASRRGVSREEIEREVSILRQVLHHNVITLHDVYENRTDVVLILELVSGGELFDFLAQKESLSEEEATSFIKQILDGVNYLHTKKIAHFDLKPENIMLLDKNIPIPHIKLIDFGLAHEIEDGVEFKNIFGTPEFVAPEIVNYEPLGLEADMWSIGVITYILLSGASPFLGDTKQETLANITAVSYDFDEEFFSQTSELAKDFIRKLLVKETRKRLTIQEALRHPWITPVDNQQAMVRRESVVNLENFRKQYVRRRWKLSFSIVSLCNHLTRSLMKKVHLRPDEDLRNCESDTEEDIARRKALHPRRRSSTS
Sequence of Fibroblast growth factor receptor 3 (Homo sapiens), P22607 [G697C] (P22607 whole entry G697C, the tested form may be a part): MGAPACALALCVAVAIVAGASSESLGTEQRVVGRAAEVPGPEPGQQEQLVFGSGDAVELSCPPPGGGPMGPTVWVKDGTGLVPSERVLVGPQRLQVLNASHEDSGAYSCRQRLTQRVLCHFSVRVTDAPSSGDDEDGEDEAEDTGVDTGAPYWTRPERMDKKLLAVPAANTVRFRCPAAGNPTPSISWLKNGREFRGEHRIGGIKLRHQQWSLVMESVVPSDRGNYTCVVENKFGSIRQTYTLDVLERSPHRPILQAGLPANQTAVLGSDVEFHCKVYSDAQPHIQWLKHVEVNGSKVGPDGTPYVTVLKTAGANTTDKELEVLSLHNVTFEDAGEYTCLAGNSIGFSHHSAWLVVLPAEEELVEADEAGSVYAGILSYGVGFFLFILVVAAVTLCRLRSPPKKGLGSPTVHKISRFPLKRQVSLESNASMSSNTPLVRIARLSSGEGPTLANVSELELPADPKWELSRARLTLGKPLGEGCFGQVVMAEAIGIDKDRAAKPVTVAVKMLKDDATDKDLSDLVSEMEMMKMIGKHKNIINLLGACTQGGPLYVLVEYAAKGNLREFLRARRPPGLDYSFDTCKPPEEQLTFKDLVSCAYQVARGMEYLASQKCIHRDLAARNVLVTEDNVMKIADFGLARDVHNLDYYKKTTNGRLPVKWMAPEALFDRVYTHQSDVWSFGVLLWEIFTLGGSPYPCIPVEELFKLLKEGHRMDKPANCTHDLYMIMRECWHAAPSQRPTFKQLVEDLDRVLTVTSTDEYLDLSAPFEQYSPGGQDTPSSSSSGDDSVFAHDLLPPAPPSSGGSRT
Sequence of TGF-beta receptor type-1 (Homo sapiens) (P36897 whole entry): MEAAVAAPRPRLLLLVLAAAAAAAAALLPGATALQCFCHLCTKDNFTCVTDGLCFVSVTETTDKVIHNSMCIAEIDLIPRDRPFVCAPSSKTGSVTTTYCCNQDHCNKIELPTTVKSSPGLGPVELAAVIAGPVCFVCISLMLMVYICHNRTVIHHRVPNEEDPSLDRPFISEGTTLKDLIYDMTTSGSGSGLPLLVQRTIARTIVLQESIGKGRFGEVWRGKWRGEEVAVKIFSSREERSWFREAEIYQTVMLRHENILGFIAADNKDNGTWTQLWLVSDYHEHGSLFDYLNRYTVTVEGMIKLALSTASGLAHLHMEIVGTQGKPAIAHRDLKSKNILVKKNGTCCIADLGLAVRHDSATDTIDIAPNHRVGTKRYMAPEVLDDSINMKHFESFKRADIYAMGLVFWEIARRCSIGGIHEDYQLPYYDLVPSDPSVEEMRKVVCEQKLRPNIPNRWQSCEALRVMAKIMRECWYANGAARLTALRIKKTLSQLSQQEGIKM
Sequence of Mitogen-activated protein kinase 3 (Homo sapiens) (P27361 whole entry): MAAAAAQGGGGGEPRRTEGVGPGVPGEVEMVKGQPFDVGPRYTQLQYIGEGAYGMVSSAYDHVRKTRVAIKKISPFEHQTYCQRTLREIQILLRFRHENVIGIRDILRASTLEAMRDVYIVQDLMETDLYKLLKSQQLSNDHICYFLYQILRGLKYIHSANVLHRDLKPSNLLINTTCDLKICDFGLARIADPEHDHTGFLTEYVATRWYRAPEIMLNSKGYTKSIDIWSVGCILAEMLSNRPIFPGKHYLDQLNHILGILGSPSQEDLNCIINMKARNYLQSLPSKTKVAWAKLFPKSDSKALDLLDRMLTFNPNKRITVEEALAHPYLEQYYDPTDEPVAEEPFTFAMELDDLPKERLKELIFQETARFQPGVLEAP
Sequence of Dual specificity mitogen-activated protein kinase kinase 5 (Homo sapiens) (Q13163 whole entry): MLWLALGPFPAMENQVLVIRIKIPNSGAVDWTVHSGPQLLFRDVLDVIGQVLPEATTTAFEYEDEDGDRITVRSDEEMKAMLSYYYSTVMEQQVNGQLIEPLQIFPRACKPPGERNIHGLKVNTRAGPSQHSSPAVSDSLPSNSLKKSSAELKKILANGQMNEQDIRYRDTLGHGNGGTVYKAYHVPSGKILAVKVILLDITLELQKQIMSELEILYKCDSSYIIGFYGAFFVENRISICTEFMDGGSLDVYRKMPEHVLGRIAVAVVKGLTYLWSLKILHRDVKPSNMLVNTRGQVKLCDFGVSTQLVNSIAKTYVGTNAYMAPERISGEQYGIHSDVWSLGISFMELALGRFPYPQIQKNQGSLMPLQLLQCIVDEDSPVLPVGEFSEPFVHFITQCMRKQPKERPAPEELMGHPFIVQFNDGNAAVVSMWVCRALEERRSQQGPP

## C[C@H](NC(=O)Nc1cc2[nH]ncc2c(CO)n1)c1ccccn1 [ERKi-NC]
[1]
  inhibition: 20%
[2]; [46]
  residual activity: 100%
[3]; [46]
  residual activity: 100%
[4]; [46]
  residual activity: 80.7%
[5]; [46]
  residual activity: 97.3%
[6]
  inhibition: 90.9%
[7]; [46]
  residual activity: 100%
[8]; [46]
  residual activity: 100%
[9]; [46]
  residual activity: 100%
[10]; [46]
  residual activity: 100%
[11]; [46]
  residual activity: 100%
[12]; [46]
  residual activity: 93.5%
[13]; [46]
  residual activity: 17.6%
[14]; [46]
  residual activity: 81.4%
[15]; [46]
  residual activity: 81%
[16]
  inhibition: 13.6%
[17]; [46]
  residual activity: 61%
[18]; [46]
  residual activity: 100%
[19]; [46]
  residual activity: 100%
[20]; [46]
  residual activity: 100%
[21]; [46]
  residual activity: 81.8%
[22]; [46]
  residual activity: 100%
[23]; [46]
  residual activity: 17%
[24]; [46]
  residual activity: 100%
[25]; [46]
  residual activity: 100%
[26]; [46]
  residual activity: 100%
[27]
  inhibition: -6.59%
[28]; [46]
  residual activity: 100%
[29]; [46]
  residual activity: 100%
[30]; [46]
  residual activity: 100%
[31]; [46]
  residual activity: 63.8%
[32]; [46]
  residual activity: 96.3%
[33]; [46]
  residual activity: 53.1%
[34]; [46]
  residual activity: 100%
[35]; [46]
  residual activity: 60.8%
[36]; [46]
  residual activity: 100%
[37]; [46]
  residual activity: 100%
[38]; [46]
  residual activity: 59.2%
[39]; [46]
  residual activity: 100%
[40]; [46]
  residual activity: 92.7%
[41]; [46]
  residual activity: 100%
[42]; [46]
  residual activity: 100%
[43]; [46]
  residual activity: 82.6%
[44]; [46]
  residual activity: 100%
[45]; [46]
  residual activity: 100%

## C[C@@H](NC(=O)Nc1cc2[nH]ncc2c(CO)n1)c1ccccc1 [ERKi]
[1]
  inhibition: -1.87%
[2]; [47]
  residual activity: 100%
[3]; [47]
  residual activity: 70.3%
[4]; [47]
  residual activity: 70%
[5]; [47]
  residual activity: 91.1%
[6]
  inhibition: 13.1%
[7]; [47]
  residual activity: 75.5%
[8]; [47]
  residual activity: 53.3%
[9]; [47]
  residual activity: 58.7%
[10]; [47]
  residual activity: 72.5%
[11]; [47]
  residual activity: 93.6%
[12]; [47]
  residual activity: 86.5%
[13]; [47]
  residual activity: 89.1%
[14]; [47]
  residual activity: 83.4%
[15]; [47]
  residual activity: 90%
[16]
  inhibition: 26.3%
[17]; [47]
  residual activity: 100%
[18]; [47]
  residual activity: 91.1%
[19]; [47]
  residual activity: 78.2%
[20]; [47]
  residual activity: 76.3%
[21]; [47]
  residual activity: 85.4%
[22]; [47]
  residual activity: 97.9%
[23]; [47]
  residual activity: 0.2%
[24]; [47]
  residual activity: 100%
[25]; [47]
  residual activity: 91.6%
[26]; [47]
  residual activity: 100%
[27]
  inhibition: 6.82%
[28]; [47]
  residual activity: 94.8%
[29]; [47]
  residual activity: 83.3%
[30]; [47]
  residual activity: 76%
[31]; [47]
  residual activity: 94.9%
[32]; [47]
  residual activity: 89.6%
[33]; [47]
  residual activity: 100%
[34]; [47]
  residual activity: 66.3%
[35]; [47]
  residual activity: 100%
[36]; [47]
  residual activity: 100%
[37]; [47]
  residual activity: 85.7%
[38]; [47]
  residual activity: 100%
[39]; [47]
  residual activity: 94.6%
[40]; [47]
  residual activity: 96.4%
[41]; [47]
  residual activity: 82.1%
[42]; [47]
  residual activity: 81%
[43]; [47]
  residual activity: 90.6%
[44]; [47]
  residual activity: 92.8%
[45]; [47]
  residual activity: 94.9%
